Test system: central dopamine receptors
Experiment: Stereotypy-triggering activity in rats after one-time i.p. pretreatment (method of Horowski and Wachtel)
Assay type: in vivo, female Wistar rats
Details: ip, rat
Protocol: The dopaminergic agonistic effect is determined, for example, with the help of method, described by Horowski and Wachtel, of the registration of stereotypies by observation of behavior (Eur. J. Pharmacol. 36: 373-383, 1976):
Immediately after intraperitoneal test substance or vehicle administration,female Wistar rats (90-110 g) are placed individually in observation cages made from transparent acrylic glass (25×19×13.5 cm). At 30, 60, 120, 240, 360 and 480 minutes after pretreatment, the presence of behavior stereotypies (chewing, licking, gnawing) is registered by observation of the animals for 2 minutes (i.e., of 30th-32nd, 60th-62nd, 120th-122nd minutes, etc.). Animals which during the 2-minute observation period show continuous chewing, licking and gnawing movements (longer than 30 seconds) are considered stereotypic.
The number of animals per treatment group with behavior stereotypies is determined during the various observation times. The different treatment groups consist of n=8 animals each. Average effective dose (ED50) is determined with 95% range of confidence for the various observation times with the help of probit analysis.
At 30, 60, 120, 240, 360 and 480 minutes after i.p. pretreatment with test substance or vehicle, the presence of behavior stereotypies in rats (chewing, licking, gnawing) was determined by observation for 2 minutes (i.e., of 30th-32nd, 60th-62nd, 120th-122nd minutes, etc.).

## CCCN1C[C@@H](NC(=O)N(CC)CC)C[C@@H]2c3ccc(C)c4[nH]c(C)c(c34)C[C@H]21 [3-(2,14-Dimethyl-6-propyl-8α-ergolinyl)-1,1-diethylurea]
0.5 h, 30 min, n=8, 95% range of confidence by probit analysis
  ED50: 0.055 mg/kg
1 h, 60 min, n=8, probit analysis
  ED50: < 0.025 mg/kg
2 h, 120 min, n=8, probit analysis
  ED50: < 0.025 mg/kg
4 h, 240 min, n=8, probit analysis
  ED50: < 0.025 mg/kg
6 h, 360 min, n=8, 95% range of confidence by probit analysis
  ED50: 0.071 mg/kg
8 h, 480 min, n=8, 95% range of confidence by probit analysis
  ED50: 0.072 mg/kg

Reference: patent US5401748A, “2,14-disubstituted ergolines, their production and use in pharmaceutical compositions” (Schering Aktiengesellschaft, priority 1991, dated 1995)
